Laboratory results taken from US11786476B2, “Oral dosage form” (Universiteit Gent, priority 2016, dated 2023).
Structures can show the parent of a compound that is named as a salt.

Tests used:
[1] = Powder characteristics of raw materials (particle size and geometry); type: physicochemical; conditions: raw material powder; for D90: 90% of particles smaller than this diameter
[2] = literature values; cited from earlier work

Row | Compound | D10 [1] [μm] | D50 [1] [μm] | Sphericity [1] | D90 [1] [μm] | aqueous solubility [2] [mg/mL]
1 | CN(C)C(=N)N=C(N)N [Metformin · HCl, metformin hydrochloride] | 8.4 | 51.6 | 0.87 | 150.2 | –
2 | COc1cccc(C2(O)CCCCC2CN(C)C)c1 (stereo not drawn) [tramadol] | – | – | – | – | 30 to 100
3 | CC(=O)Nc1ccc(O)cc1 [Acetaminophen, acetaminophen] | 1.7 | 6.4 | 0.84 | 20.1 | –
